According to article PMC5618791, “Double quick, double click reversible peptide “stapling”” (Chemical Science, 2017):
Positions of bridges follow the written chain, without caps; N, C: chain ends. Residues, ends and D or L forms follow the SMILES beside them.

Experiments:
[1] = Circular dichroism, % helicity; assay type: physicochemical; conditions: CD, peptide 10-20 μM, calculated from MRE at 222 nm
Method: Samples were prepared in two different solvent systems (30% TFE:H2O, 30% CH3CN:water) to concentrations between 10 - 20 μM (Figure S 23). Considering the high number of hydrophobic residues in BID and S peptides, organic co-solvents were used to ensure good solubility and avoid aggregation at concentrations high enough for CD analyses. DMSO stocks of peptides were not used for CD due to its high absorbance below 230 nm.
The raw circular dichroism data obtained for the peptides was processed by the subtraction of the solvent signal and converted into a mean residue ellipticity:
Where = molar ellipticity[θ]MRE per residue, θ = circular dichroism at a given wavelength, c = molar concentration, l = path length in cm, R = number of residues in the peptide sequence.
Calculation of % helicity was performed by the following equation:[4]
Where: θH = Theoretical MRE for 100% helicity at 222 nm, θ0 = Theoretical MRE for 100% helicity at 222 nm at 0 °C = –44000, (∂θ/∂T) = temperature dependence of infinite helix = +250, T = temperature in °C, x = 3, Nr = number of residues in the peptide.
In both solvent systems, it is noteworthy that STA-peptides are more helical than RED-peptides or WT-peptides; with the exception of constrained S-Cys-peptides. The use of TFE as co-solvent in water enhances the α-helicity of both series of peptides compared to the use of acetonitrile in water. […]
thus bioactive) conformation. The S peptides show a low helix propensity which is consistent […]
Figure S 23: CD spectra A. and B. in 30% TFE:H 2O; C. and D. in 30% CH3CN:H 2O.
Table 1: Percentage of helicity in the three solvent systems […]
(also on this page, place not known: Molar residue ellipticity (deg.cm 2 .dmol -1 ) Molar residue ellipticity (deg.cm 2 .dmol -1 ) Molar residue ellipticity (deg.cm 2 .dmol -1 ) Molar residue ellipticity (deg.cm 2 .dmol -1 ) TFE:H2O; CH3CN:H2O.)

RNase S protein = target: T1, RNase S protein (Bos taurus, UniProt P61823); assay: RNA degradation assay, restoration of S protein activity; assay type: biochemical; conditions: EtBr-labelled RNA, S peptides 0.1-2 μM, 50 mM Tris, 100 mM NaCl, pH 7.50, 60 min, room temperature, fluorescence, triplicate
T1 construct: S protein 21-124; made in house; host or cells: proteolytic fragment of RNase A (subtilisin digestion)
T1 sequence (P61823 47-150): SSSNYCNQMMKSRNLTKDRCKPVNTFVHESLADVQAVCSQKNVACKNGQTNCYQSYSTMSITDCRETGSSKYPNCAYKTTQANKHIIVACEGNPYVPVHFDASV
Method: Fig. 5 Biophysical and bioactivity analyses of WT-S and S derived peptides 3–4a,c. (a) Circular dichroism spectra recorded in water (30% TFE); (b) RNA degradation assay showing the restoration of S protein activity. S protein was used as a negative control, and RNase A as a positive control. (50 mM Tris, 100 mM NaCl, pH 7.50).
RNase A (10 mg) in Hepes (600 µL, 100 mM; pH = 8.0) was digested by subtilisin (5 mg/mL, 10 µL) for 4 hrs at 0 °C. After which, the buffer was acidified with a solution of HCl (1 M) to reach pH = 3. The acidic solution was stirred for 1 h at 2 °C. The reaction was monitored by HPLC using the Jupiter µ Proteo 90 A analytical column using a gradient (0-60% over 30 min). […]
RNA degradation assays were performed in 96-well black plates (Greiner Bio-one). Each experiment was run in triplicate and the fluorescence was measured using a Perkin Elmer EnVisionTM 2103 MultiLabel plate reader, with an excitation and emission at 510 nm and at […]
The buffer used in this enzymatic assay was Tris buffer (50 mM of Tris, 100 mM of NaCl, pH = 7.5). The adequate quantity of buffer was first added to each well to reach a total volume of 200 µL (150 µL for controls, 149 µL for 0.1 µM of S peptides, 148 µL for 0.2 µM of S peptides, 145 µL for 0.5 µM of S peptides, 140 µL for 1 µM of S peptides, 130 µL for 2 µM of S peptides). […]

Percentage of helicity, 30% CH3CN:H2O ([1]; 30% CH3CN:H2O): 0% | Percentage of helicity, 30% TFE:H2O ([1]; 30% TFE:H2O): 0% | Restoration of S protein (RNase) enzymatic activity (RNase S protein): failure to restore S protein activity
SMILES: CSCC[C@H](NC(=O)[C@H](Cc1c[nH]cn1)NC(=O)[C@H](CCC(N)=O)NC(=O)[C@@H]1CSSC[C@H](NC(=O)[C@H](C)NC(=O)[C@H](C)NC(=O)[C@@H](NC(=O)[C@H](CCC(=O)O)NC(=O)[C@H](CCCCN)NC(C)=O)[C@@H](C)O)C(=O)N[C@@H](CCCCN)C(=O)N[C@@H](Cc2ccccc2)C(=O)N[C@@H](CCC(=O)O)C(=O)N1)C(=O)N[C@@H](CC(=O)O)C(=O)N[C@@H](CO)C(N)=O [2c] (Ac-KETAACKFECQHMDS-NH2; disulfide 6-10)
